Paper PMC4476799, “Englerin A Agonizes the TRPC4/C5 Cation Channels to Inhibit Tumor Cell Line Proliferation” (PLoS ONE, 2015)
pEC50, pIC50: −log10 of the molar value. Read-outs that look alike come from different tables or passages of the source.

Tested on: cancer cell lines from the cancer cell line encyclopedia (CCLE)
Test: Cell line profiling (CLiP) proliferation experiment
Format: cell-based
Parameters: ACTIVITY_AREA: scale not given here; AMAX: unit not given here
Conditions: for pIC50: read-out: Crossing Point; for pEC50: read-out: Inflection Point
Procedure: Compound profiling experiment and data analysis was performed as previously described. Data was imported and plotted using the Tibco Spotfire DXP application. Lines were categorized as sensitive, intermediate and refractory as follows: Amax<-40 & Inflection Point <2 ~ Sensitive, Amax>-20 & Inflection Point >10 ~ Refractory, all else were called Intermediate. Cancer Cell line HG-U133 Plus 2 data was processed and normalized as described. […] Five sets of refractory cell lines were generated from the pool of refractory cell lines trying to match the lineage composition of the set of sensitive cell lines. The limma package was used as previously described to perform the statistical comparison.

[1] = Homo sapiens, ZR-75-30, ZR-75-30 cell line, breast, ductal_carcinoma
[2] = KYO1, KYO-1 (haematopoietic_and_lymphoid_tissue)
[3] = LP-1 (haematopoietic_and_lymphoid_tissue)
[4] = Loucy (haematopoietic_and_lymphoid_tissue)
[5] = MOLM16, cell line MOLM-16 (haematopoietic_and_lymphoid_tissue)
[6] = NCI-H1869, lung, squamous_cell_carcinoma
[7] = NCI-H2073, NCI-H2073, lung, adenocarcinoma
[8] = OCI-M1, OCI-M1, haematopoietic_and_lymphoid_tissue, acute_myeloid_leukaemia
[9] = PaTuÂ 8988s, cell line PA-TU-8988S
[10] = SH-10-TC, cell line SH-10-TC, stomach
[11] = SNU878, cell line SNU-878, liver, hepatocellular_carcinoma
[12] = SUP-M2, SUP-M2 (haematopoietic_and_lymphoid_tissue, anaplastic_large_cell_lymphoma)
[13] = T24 (urinary_tract, transitional_cell_carcinoma)
[14] = T84 (large_intestine, adenocarcinoma)
[15] = TE-1 (oesophagus, squamous_cell_carcinoma)
[16] = TEN (endometrium, clear_cell_carcinoma)
[17] = TT2609-C02 (thyroid, follicular_carcinoma)
[18] = U266B1 (haematopoietic_and_lymphoid_tissue, plasma_cell_myeloma)

CC(C)[C@@]12C[C@@H](O)[C@@](C)(O1)[C@@H]1CC[C@@H](C)[C@H]1[C@@H]2OC(=O)/C=C/c1ccccc1 [Englerin B]
4.69: pEC50 (Mel202, cell line Mel202 (eye)) | pEC50 [7]
4.62: pIC50 [7] | pIC50 (TE-6 (oesophagus, squamous_cell_carcinoma))
4.88: pEC50 (RKO (large_intestine)) | pEC50 [16]
4.68: pIC50 (KURAMOCHI (ovary)) | pIC50 (PL-21, cell line PL-21)
4.77: pEC50 (KHM-1B, KHM-1B cells) | pEC50 (KHM-1B) | pIC50 (NCI-H841, NCI-H841, lung, small_cell_carcinoma)
4.83: pEC50 (MB 157 (breast)) | pIC50 (OUMS-23, cell line OUMS-23)
INTERMEDIATE: RESPONSE (UACC-62 cell line, skin, NS) | RESPONSE (UACC-257 (skin, NS))
4.56: pIC50 [11] | pEC50 [11]
4.93: pEC50 [8] | pEC50 (OCI-M1, OCI-M1 cells)
31.33: ACTIVITY_AREA (UACC-257 (skin, NS))
4.79: pEC50 (KURAMOCHI (ovary))
4.82: pIC50 (JHUEM-2) | pIC50 (JHUEM-2 cells) | pIC50 [5] | pEC50 [5]
< 4.52: pIC50 [1] | pIC50 (Hs766T, cell line Hs 766T, pancreas) | pIC50 (Hs766T, cell line Hs 766T) | pIC50 (Hs 940.T cells) | pIC50 (IGR-39, cell line IGR-39, skin) | pIC50 (IGR-39, cell line IGR-39) | pIC50 (JHH-2, JHH-2) | pIC50 (JHH-2, cell line JHH-2) | pIC50 (K029AX (skin)) | pIC50 (K029AX) | pIC50 (KMRC-1, KMRC-1) | pIC50 (KMRC-1, KMRC-1 cells) | pIC50 (KMRC-2) | pIC50 (KMRC-2 cells) | pIC50 (KMRC-20) | pIC50 (KMRC-20 cells) | pIC50 (KP-1NL (pancreas)) | pIC50 (KP-1NL) | pIC50 (KP-N-YN (autonomic_ganglia)) | pIC50 (KP-N-YN) | pIC50 (L3.3 (pancreas)) | pIC50 (LC-1/sq-SF (lung)) | pIC50 (LK-2 (lung)) | pIC50 (LP-6 (soft_tissue)) | pIC50 (Li-7 (liver)) | pIC50 (MB 157 (breast)) | pIC50 (MCAS (ovary)) | pIC50 (MDST8, MDST8 (large_intestine)) | pIC50 (Mel202, cell line Mel202 (eye)) | pIC50 (Mel202, cell line Mel202) | pIC50 (NCI-H196, NCI-H196, lung, small_cell_carcinoma) | pIC50 (NCI-H196, cell line NCI-H196) | pIC50 [6] | pIC50 (NCI-H1869 cells) | pIC50 (NCI-H2106, lung, non_small_cell_carcinoma) | pIC50 (NCI-H2330, lung, small_cell_carcinoma) | pIC50 (OC 316, ovary, adenocarcinoma) | pIC50 (OMM2.3 (eye)) | pIC50 (OMM2.5 cells) | pIC50 (OV7, OV7 cells) | pIC50 (OV56, OV56 cells) | pIC50 (OV56, cell line OV56) | pIC50 (RCC10RGB cells) | pIC50 (RERF-LC-AI cells) | pIC50 (RKN (soft_tissue)) | pIC50 (RMUG-S (ovary)) | pIC50 (SH-4 (skin)) | pIC50 (SH-10-TC, SH-10-TC (stomach)) | pIC50 [10] | pIC50 (SNG-M (endometrium)) | pIC50 (SNU-119 (ovary)) | pIC50 (SNU-216, SNU-216 (stomach)) | pIC50 (SNU-216, cell line SNU-216, stomach) | pIC50 (SNU-738 (central_nervous_system)) | pIC50 (SNU-C5 (large_intestine)) | pIC50 (SNU-C5 (large_intestine, adenocarcinoma)) | pIC50 (SR-786, SR-786 (haematopoietic_and_lymphoid_tissue)) | pIC50 (SR-786, SR-786 (haematopoietic_and_lymphoid_tissue, anaplastic_large_cell_lymphoma)) | pIC50 (SUM52, SUM-52 (breast)) | pIC50 (SUM52, SUM-52 (breast, NS)) | pIC50 (SUM52PE, SUM52PE (breast)) | pIC50 (SUM52PE, SUM52PE (breast, NS)) | pIC50 (SW1271, SW 1271 (lung)) | pIC50 (SW1271, SW 1271 (lung, small_cell_carcinoma)) | pIC50 (T24 (urinary_tract)) | pIC50 [13] | pIC50 (T778 (soft_tissue)) | pIC50 (T778 (soft_tissue, well_differentiated)) | pIC50 (TEN (endometrium)) | pIC50 [16] | pIC50 (U266B1 (haematopoietic_and_lymphoid_tissue)) | pIC50 [18]
4.81: pIC50 (KMS-26, KMS-26) | pIC50 (Kelly)
4.73: pIC50 [3] | pEC50 [3]
4.95: pIC50 (NCI-H1781, cell line NCI-H1781 (lung)) | pEC50 [10]
4.61: pIC50 (NCI-H2172, NCI-H2172, lung, non_small_cell_carcinoma)
-80.26: AMAX (UACC-257 (skin, NS))
4.54: pIC50 (JHOM-1) | pEC50 (JHOM-1)
5.30: pEC50 [13]
4.71: pIC50 (KHM-1B) | pIC50 [2]
4.72: pIC50 [15]
4.75: pIC50 (Karpas-620, KARPAS-620) | pEC50 (Karpas-620, KARPAS-620) | pEC50 (OUMS-23, OUMS-23 cells) | pEC50 (OUMS-23, cell line OUMS-23) | pEC50 (RERF-LC-AI cells)
5.53: pEC50 [6] | pEC50 (NCI-H1869 cells)
-44.29: AMAX (UACC-62 cell line, skin, NS)
4.98: pEC50 (KASUMI-2) | pEC50 (KASUMI-2 cells)
4.86: pIC50 (JHH7, JHH-7)
4.67: pIC50 (Mono-Mac-1, cell line MONO-MAC-1 (haematopoietic_and_lymphoid_tissue))
4.53: pEC50 [1] | pIC50 (KMS-28BM) | pIC50 (TE-5 (oesophagus, squamous_cell_carcinoma))
4.55: pIC50 (KMS-27, KMS-27) | pEC50 (KMS-27, KMS-27) | pIC50 (KMS-27, KMS-27 cells) | pEC50 (KMS-27, KMS-27 cells) | pIC50 (KMS-34, KMS-34) | pIC50 (KS-1) | pIC50 [14]
4.84: pIC50 (Ki-JK (haematopoietic_and_lymphoid_tissue)) | pIC50 (Ki-JK) | pEC50 [17] | pEC50 (TT2609-C02 cells)
41.15: ACTIVITY_AREA (UACC-62 cell line, skin, NS)
4.60: pIC50 (TC-71, TC-71 (bone, NS))
4.57: pIC50 (KO52)
5.02: pEC50 [14]
4.66: pIC50 (KP-N-SI9s)
4.74: pIC50 [12] | pEC50 [12] | pIC50 (SUP-M2, SUP-M2 cells) | pEC50 (SUP-M2, SUP-M2 cells)
4.64: pEC50 (KP-N-SI9s) | pEC50 (LC-1/sq-SF (lung))
4.85: pEC50 (Ki-JK)
4.63: pIC50 [9] | pEC50 [9]
4.92: pEC50 [2] | pEC50 (KYO1, KYO-1 cells) | pEC50 (RCH-ACV cells) | pEC50 (TE 617.T (soft_tissue, NS)) | pEC50 (TE 617.T cells)
6.85: pEC50 (KMRC-20) | pEC50 (KMRC-20 cells)
5.00: pIC50 (Ri-1, RI-1 cells) | pEC50 (Ri-1, RI-1 cells)
5.45: pIC50 (ONCO-DG-1, cell line ONCO-DG-1)
4.78: pEC50 (KMS-26, KMS-26) | pEC50 (KMS-26, KMS-26 cells) | pIC50 (TE 617.T (soft_tissue, NS)) | pEC50 [15] | pIC50 (TF-1 (haematopoietic_and_lymphoid_tissue, acute_myeloid_leukaemia))
4.91: pIC50 (JHH-5) | pEC50 [4]
4.70: pIC50 (KPL-1, KPL-1) | pIC50 (LMSU (stomach))
4.87: pIC50 [4] | pIC50 (NCI-H2023, NCI-H2023, lung, adenocarcinoma) | pIC50 [8]
4.65: pIC50 [17]
4.90: pIC50 (KYM-1 (soft_tissue))
5.18: pIC50 (NCI-H1568, cell line NCI-H1568 (lung))
4.80: pIC50 (KASUMI-2) | pIC50 (KASUMI-2 cells) | pIC50 (KMM-1, KMM-1) | pEC50 (Kelly) | pEC50 [18]
4.58: pEC50 (K029AX) | pEC50 (PL-21, PL-21 cells) | pEC50 (PL-21, cell line PL-21)
